Measurements published in US6344217B1, “Putamen OVI” (priority 1994, dated 2002).
Values joined by “and” are separate entries in the source; they are usually repeats but may differ in a detail not shown here. Identical values can stand only once. “Also recorded” adds a separate entry of the source.

Key:
[1] = system: healthy females in post-menopause; conditions: two-year study, 361 healthy females in post-menopause; cited from earlier work
Male Wistar rats [2] = test: Clinical-chemical serum parameters after 7-day treatment of rats; assay type: in vivo, rat
Procedure: (§1) Male Wistar rats having an average body weight of 322.5 g were kept under conventional conditions at a room temperature of 21±1° C., a relative atmospheric humidity of about 60% and a 12 hour day/night cycle. Prior to the start of the experiment, they where subjected to an acclimatization to those keeping conditions for 12 days.
(§2) Feeding was performed with the pelletized standard diet Altromin C 1000, Misch. Nr. 100 (Altrogge). The animals were given tap water ad libidum as drinking water.
(§3) 1. Coated tablet core granules, micronized with putamen ovi; 1 coated tablet core aar® os with 640 mg contains 440 mg of putamen ovi, micronized, corresponding to 160 mg of calcium; Dosage form: Putamen ovi, coated tablet core granules, 146 mg (≡100 mg of putamen ovi, micronized≈36.5 mg of Ca) is suspended in 2 ml of dist. water (POS), 0.5 ml (POS)≡9.125 mg of Ca (PO)/[…]
(§4) The suspension were freshly prepared immediately before the administration and homogeneously administered. The control animals were given physiological saline in an equivalent volume.
Parameters such as enzymes, glucose, lipids, electrolytes, creatinin, urea and protein are detected selectively, method-oriented, photometrically or ion-selectively using the analyzer Cobas Mira. The supplemental report furnishes analysis-specific data of quality control and statistics.
The following clinical-chemical metabolic measurement values were analyzed in a combined method-specific manner: Bilirubin, creatinin, urea, glutamate oxalacetate transaminase (GOT), glutamate pyruvate transaminase (GPT), gamma-glutamyl transferase (GGT), glucose, cholesterol, triglycerides, calcium, sodium, potassium, chloride and total protein.
(§5) Measurements were performed with the following test substances (corresponding values for the control=100%): […]

Male Wistar rats [3] = test: Haematology (WBC, RBC) after 7-day intragastral treatment of rats; assay type: in vivo, rat
Procedure: as §1, §2, §3, §4
erythrocytes (RBC), leucocytes (WBC), platelets (PLT), hemoglobin (HGB), hematocrit (HCT)
By means of the fully automated hematology analyzer Sysmex K-1000, the following were determined: WBC, RBC, PLT as well as HGB and HCT, further MCV, MCH and MCHC. The main unit of this device essentially consists of a hydraulic (HS) and an electronic (ES) system. The HS is used for sucking, pipetting, diluting, mixing and lysing. The ES analyzes and converts the signals from the HS and submits the results to the printer. With the aid of microprocessors, the ES also monitors the test runs, the testing station, and performs a quality control.
The hematocrit value corresponds to the percent volume fraction of erythrocytes in blood. In addition to the number of erythrocytes and the hematocrit value, the level of hemoglobin, the chromoprotein contained in the erythrocytes, is an important criterion for the diagnostics of anemias. Classification is performed by the erythrocyte indices. Erythrocyte size and hemoglobin content are characterized by the erythrocyte volume (MCV=mean corpuscular volume), the hemoglobin content of the erythrocytes (MCH=mean corpuscular hemoglobin), and the mean corpuscular hemoglobin concentration (MCHC). The erythrocyte distribution width (RDW=red cell distribution width) is a measure of anisocytosis.
as §5

Male Wistar rats [4] = test: Leucocyte/lymphocyte differentiation by flow cytometry after 7-day treatment of rats; assay type: in vivo, rat
Procedure: as §1, §2, §3, §4
The leucocyte differentiation was performed using the flow cytometer FACScan following appropriate lysing of the whole blood sample (scattered light measurement).
The lymphocyte differentiation was performed after specific monoclonal incubation by means of fluorescence-activated cell sorting (fluorescence measurement).
On the 7th day of treatment, there were analyzed quantitatively:
For determining the phenotypes of the lymphocytes, they were incubated with the following antibodies of Pharmingen, San Diego (USA), to which a fluorochrome was coupled:
5 μl each of the antibodies is incubated with 50 μl of Na-EDTA-blood at room temperature in the dark for 20 min. The suspension is agitated with 2 ml of Lyses Reagenz of Becton-Dickinson and incubated for 10 min as described. This followed by centrifuging at 400×g for 6 min, and the supernatant is poured off. The pellet is washed with 3 ml of Cell Wash and centrifuged at 400×g for 6 min. The pellet is taken up in 100 μl of Cell Wash. The suspension is analyzed by means of the flow cytometer.
as §5

Male Wistar rats [5] = test: Histological examination of organs after 7-day treatment of rats; conditions: 7 days
Procedure: as §1, §2, §3, §4

[6] = change vs control (=100%), rats, 7 days intragastral, serum
[7] = change vs control (=100%), rats, intragastral once daily for 7 days, peripheral blood
[8] = change vs control (=100%), rats, 7th day of treatment, peripheral blood

| Compound | Ca (Male Wistar rats [2]; [6]) | AP (alkaline phosphatase) (Male Wistar rats [2]; [6]) | GLDH (Male Wistar rats [2]; [6]) | GOT (Male Wistar rats [2]; [6]) | GPT (Male Wistar rats [2]; [6]) | SP (acid phosphatase) (Male Wistar rats [2]; [6]) | bilirubin (Male Wistar rats [2]; [6]) | cholesterol (Male Wistar rats [2]; [6]) | creatinin (Male Wistar rats [2]; [6]) | glucose (Male Wistar rats [2]; [6]) | triglycerides (Male Wistar rats [2]; [6]) | urea (Male Wistar rats [2]; [6]) | WBC (number of leucocytes) (Male Wistar rats [3]; [7]) | T lymphocytes (Male Wistar rats [4]; [8]) | helper lymphocytes (Male Wistar rats [4]; [8]) | lymphocytes (Male Wistar rats [4]; [8]) | supp. lymphocytes (Male Wistar rats [4]; [8]) | also measured |
| --- | --- | --- | --- | --- | --- | --- | --- | --- | --- | --- | --- | --- | --- | --- | --- | --- | --- | --- |
| O=C([O-])[O-].[Ca+2] [CC, Calcium carbonate] | unch. | – | – | – | – | – | – | – | – | – | – | – | – | – | – | – | – | inhibitory influence on bone mass losses [1]: only a slightly pronounced inhibitory influence; AP (alkaline phosphatase) (Male Wistar rats [2]; rat, in vivo): +5.5%; GLDH (Male Wistar rats [2]; rat, in vivo): +6.7%; GOT (Male Wistar rats [2]; rat, in vivo): −7.1%; GPT (Male Wistar rats [2]; rat, in vivo): unch.; SP (acid phosphatase) (Male Wistar rats [2]; rat, in vivo): unch.; bilirubin (Male Wistar rats [2]; rat, in vivo): −17.3%; cholesterol (Male Wistar rats [2]; rat, in vivo): unch.; creatinin (Male Wistar rats [2]; rat, in vivo): −19.7%; glucose (Male Wistar rats [2]; rat, in vivo): +6.7%; triglycerides (Male Wistar rats [2]; rat, in vivo): −7.8%; urea (Male Wistar rats [2]; rat, in vivo): −13.9%; RBC (number of erythrocytes) (Male Wistar rats [3]; rat, in vivo): not increased; B lymphocytes (Male Wistar rats [4]; rat, in vivo): +7.6%; T lymphocytes (Male Wistar rats [4]; rat, in vivo): unch.; chemoprotective effect (Male Wistar rats [4]; rat, in vivo): neither showed positive effects in clinically healthy rats nor chemoprotective effects; helper lymphocytes (Male Wistar rats [4]; rat, in vivo): −4.3%; lymphocytes (Male Wistar rats [4]; rat, in vivo): unch.; polymorphs (polymorphonuclear granulocytes) (Male Wistar rats [4]; rat, in vivo): unch.; supp. lymphocytes (Male Wistar rats [4]; rat, in vivo): +12.4% |
| O=P1(N(CCCl)CCCl)NCCCO1 (stereo not drawn) [CyS, Cyclophosphamide] | −23.2% | −14.7% | −21.3% | −24.6% | −30.8% | −9.1% | +58.6% | −25% | −28.3% | +5.2% | +10.1% | unch. | −51.3% | −51% and −51.9% | −45.9% | −55.0% | −30.9% | B lymphocytes (Male Wistar rats [4]; [8]): −79.9%; polymorphs (polymorphonuclear granulocytes) (Male Wistar rats [4]; [8]): −28.1%; erythrocytes in thorn-apple form (acanthocytes) in bone marrow sinuses (Male Wistar rats [5]): encountered |
| NS(=O)(=O)c1cc(C(=O)O)c(NCc2ccco2)cc1Cl [FUR, Furosemide] | −28.9% | −13.4% | −31.3% | unch. | −24.4% | – | +20.7% | −24.9% | −49.7% | unch. | −29.6% | −7.3% | +61.0% | +46.2% | +41.5% | +60.5% | unch. | RBC (number of erythrocytes) (Male Wistar rats [3]; [7]): unchanged |
| [F-].[Na+] [NF, Sodium fluoride] | unch. | unch. | −17.3% | −9.8% | −9.7% | −7.5% | +13.8% | −8.7% | −20.7% | +15.7% | −4.2% | −13.2% | +13.8% | did not induce an effect; also recorded: unch | did not induce an effect; also recorded: unch | unch. | did not induce an effect; also recorded: unch | – |
